Results: paper PMC12811658, “Design, Synthesis, and Structural Evolution of Pseudo‐Natural Product IDO1 Inhibitors and Degraders” (Angewandte Chemie (International Ed. in English), 2025)

System: Kyn levels in BxPC3 cells (kynurenine generated by IDO1)
Test: Cellular Kyn assay (automated Kyn screening assay)
Assay type: cell-based
Conditions: Homo sapiens, BXPC-3, 48 h, IFN-γ, L-Trp and compounds 48 h, mean ± SD, read-out: IC50 (Kyn assay), reduction of kynurenine levels

IC50	SMILES
5100 ± 400 nM	Cc1ccc(NC(=O)OC[C@]23CN(S(=O)(=O)C4CCCCC4)C[C@H]2C[C@H]2C[C@@H]3C2(C)C)cc1 [compound 55, ((3aS,4R,6R,7aS)-2-(cyclohexylsulfonyl)-5,5-dimethyloctahydro-3aH-4,6-methanoisoindol-3a-yl)methyl p-tolylcarbamate]
2500 ± 1100 nM	Cc1ccc(NC(=O)OC[C@]23CN(S(=O)(=O)c4ccc(C(F)(F)F)cc4)C[C@H]2C[C@H]2C[C@@H]3C2(C)C)cc1 [compound 56, ((3aS,4R,6R,7aS)-5,5-dimethyl-2-((4-(trifluoromethyl)phenyl)sulfonyl)octahydro-3aH-4,6-methanoisoindol-3a-yl)methyl p-tolylcarbamate]
> 10000 nM	COc1ccc(S(=O)(=O)N2C[C@H]3C[C@H]4C[C@H](C4(C)C)[C@@]3(COC(=O)Nc3ccc(C)cc3)C2)cc1 [compound 57, ((3aS,4R,6R,7aS)-2-((4-methoxyphenyl)sulfonyl)-5,5-dimethyloctahydro-3aH-4,6-methanoisoindol-3a-yl)methyl p-tolylcarbamate]
3000 ± 1300 nM	Cc1ccc(NC(=O)OC[C@]23CN(S(=O)(=O)c4ccc(OC(F)(F)F)cc4)C[C@H]2C[C@H]2C[C@@H]3C2(C)C)cc1 [compound 58, ((3aS,4R,6R,7aS)-5,5-dimethyl-2-((4-(trifluoromethoxy)phenyl)sulfonyl)octahydro-3aH-4,6-methanoisoindol-3a-yl)methyl p-tolylcarbamate]
6200 ± 1700 nM	Cc1ccc(NC(=O)OC[C@]23CN(S(=O)(=O)c4ccccc4Br)C[C@H]2C[C@H]2C[C@@H]3C2(C)C)cc1 [compound 59, ((3aS,4R,6R,7aS)-2-((2-bromophenyl)sulfonyl)-5,5-dimethyloctahydro-3aH-4,6-methanoisoindol-3a-yl)methyl p-tolylcarbamate]
6100 ± 900 nM	CC1(C)[C@H]2C[C@@H]3CN(S(=O)(=O)c4cccnc4)C[C@]3(COC(=O)Nc3ccc(I)cc3)[C@@H]1C2 [compound 61, ((3aS,4R,6R,7aS)-5,5-dimethyl-2-(pyridin-3-ylsulfonyl)octahydro-3aH-4,6-methanoisoindol-3a-yl)methyl (4-iodophenyl)carbamate]
1300 ± 300 nM	Cc1ccc(S(=O)(=O)N2C[C@H]3C[C@H]4C[C@H](C4(C)C)[C@@]3(COC(=O)Nc3ccc(I)cc3)C2)cn1 [compound 62, ((3aS,4R,6R,7aS)-5,5-dimethyl-2-((6-methylpyridin-3-yl)sulfonyl)octahydro-3aH-4,6-methanoisoindol-3a-yl)methyl (4-iodophenyl)carbamate]
3500 ± 300 nM	CC1(C)[C@H]2C[C@@H]3CN(S(=O)(=O)c4cccs4)C[C@]3(COC(=O)Nc3ccc(I)cc3)[C@@H]1C2 [compound 63, ((3aS,4R,6R,7aS)-5,5-dimethyl-2-(thiophen-2-ylsulfonyl)octahydro-3aH-4,6-methanoisoindol-3a-yl)methyl (4-iodophenyl)carbamate]
400 ± 100 nM	CC1(C)[C@H]2C[C@@H]3CN(S(=O)(=O)c4ccc5ccccc5c4)C[C@]3(COC(=O)Nc3ccc(I)cc3)[C@@H]1C2 [compound 64, ((3aS,4R,6R,7aS)-5,5-dimethyl-2-(naphthalen-2-ylsulfonyl)octahydro-3aH-4,6-methanoisoindol-3a-yl)methyl (4-iodophenyl)carbamate]
2600 ± 500 nM	CC1(C)[C@H]2C[C@@H]3CN(S(=O)(=O)c4ccccc4)C[C@]3(COC(=O)Nc3ccc(I)cc3)[C@@H]1C2 [compound 65, ((3aS,4R,6R,7aS)-5,5-dimethyl-2-(phenylsulfonyl)octahydro-3aH-4,6-methanoisoindol-3a-yl)methyl (4-iodophenyl)carbamate]
650 ± 270 nM	Cc1ccccc1S(=O)(=O)N1C[C@H]2C[C@H]3C[C@H](C3(C)C)[C@@]2(COC(=O)Nc2ccc(I)cc2)C1 [compound 66, ((3aS,4R,6R,7aS)-5,5-dimethyl-2-(o-tolylsulfonyl)octahydro-3aH-4,6-methanoisoindol-3a-yl)methyl (4-iodophenyl)carbamate]
